Experiments:
Assay in all cases: MIC determination, broth microdilution
Format in all cases: cell-based
[1] = system: K. pneumoniae clinical isolate; settings: Klebsiella pneumoniae, 37° C., 18-24 hours, read-out: Strain 3 MIC
Procedure: (§1) Compounds of this invention were tested for antimicrobial activity by determining minimum inhibitory concentrations (MICs, in μg/mL) using the broth microdilution method according to the guidelines of the Clinical Laboratories and Standards Institute (“Methods for Dilution Antimicrobial Susceptibility Tests for Bacteria that Grow Aerobically”, Approved standard, 7th ed., Clinical and Laboratory Standards Institute (CLSI) Document M7-A8, Wayne, Pa., USA, 2009.). Test compounds were dissolved in DMSO. The compounds were then diluted in microbial growth medium (Mueller Hinton Broth II, cation adjusted) resulting in a final concentration range of 0.063-64 μg/mL in serial two-fold dilution. In all cases the final DMSO concentration was less than 0.5%. Bacteria were added to 96-well microtitre plates containing the two-fold dilutions of the compounds; the final cell density was approximately 5×10^5 colony forming units/mL (CFU/mL). Plates were incubated at 37° C. for 18-24 hours and read visually. The MIC, i.e. the lowest concentration of the test compound that inhibited visible growth of the bacteria, was recorded. The same assay conditions were used when the compounds of this invention were tested in combination with—lactamase inhibitors. While the compounds of this invention were serially diluted as described above, a constant concentration of the inhibitor of 4 mg/L was used. Bacterial strains that were used to evaluate the antimicrobial activity using the MIC determination included but were not limited to E. coli clinical isolate, E. coli 8739, K. pneumoniae clinical isolate, K. pneumoniae 700603, E. cloacae clinical isolate, E. cloacae 700323, A. baumannii clinical isolate, A. baumannii 19606, P. aeruginosa clinical isolate, P. aeruginosa 9027.

E. coli 8739 = settings: Escherichia coli, 37° C., 18-24 hours, read-out: Strain 2 MIC
Procedure: as §1

[2] = system: A. baumannii clinical isolate; settings: Acinetobacter baumannii, 37° C., 18-24 hours, read-out: Strain 7 MIC
Procedure: as §1

P. aeruginosa 9027 = settings: Pseudomonas aeruginosa, 37° C., 18-24 hours, read-out: Strain 10 MIC
Procedure: as §1

E. coli clinical isolate = settings: Escherichia coli, 37° C., 18-24 hours, read-out: Strain 1 MIC
Procedure: as §1

E. cloacae 700323 = settings: Enterobacter cloacae, 37° C., 18-24 hours, read-out: Strain 6 MIC
Procedure: as §1

K. pneumoniae 700603 = settings: Klebsiella pneumoniae, 37° C., 18-24 hours, read-out: Strain 4 MIC
Procedure: as §1

A. baumannii 19606 = settings: Acinetobacter baumannii, 37° C., 18-24 hours, read-out: Strain8 MIC
Procedure: as §1

[3] = system: P. aeruginosa clinical isolate; settings: Pseudomonas aeruginosa, 37° C., 18-24 hours, read-out: Strain 9 MIC
Procedure: as §1

[4] = system: E. cloacae clinical isolate; settings: Enterobacter cloacae, 37° C., 18-24 hours, read-out: Strain5 MIC
Procedure: as §1

| SMILES | MIC [1] [µg/mL] | MIC (E. coli 8739) [µg/mL] | MIC [2] [µg/mL] | MIC (P. aeruginosa 9027) [µg/mL] | MIC (E. coli clinical isolate) [µg/mL] | MIC (E. cloacae 700323) [µg/mL] | MIC (K. pneumoniae 700603) [µg/mL] | MIC (A. baumannii 19606) [µg/mL] | MIC [3] [µg/mL] | MIC [4] [µg/mL] |
| --- | --- | --- | --- | --- | --- | --- | --- | --- | --- | --- |
| CC1(C)[C@H](NC(=O)/C(=N\O[C@@H](COc2ccc(C(=N)N[C@@H]3CCCNC3)cc2)C(=O)O)c2nc(N)sc2Cl)C(=O)N1OS(=O)(=O)O [Example 3, (S)-2-((((Z)-1-(2-Amino-5-chlorothiazol-4-yl)-2-(((S)-2,2-dimethyl-4-oxo-1-(sulfooxy)azetidin-3-yl)amino)-2-oxoethylidene)amino)oxy)-3-(4-(N—((R)-piperidin-3-yl)carbamimidoyl)phenoxy)propanoic acid] | 2 | 0.5 | 16 | 1 | 2 | 8 | 8 | 8 | 4 | 8 |
| CC1(C)[C@H](NC(=O)/C(=N\O[C@@H](COc2ccc(C(=N)N[C@H]3CCNC3)cc2)C(=O)O)c2nc(N)sc2Cl)C(=O)N1OS(=O)(=O)O [Example 5, (S)-2-((((Z)-1-(2-Amino-5-chlorothiazol-4-yl)-2-(((S)-2,2-dimethyl-4-oxo-1-(sulfooxy)azetidin-3-yl)amino)-2-oxoethylidene)amino)oxy)-3-(4-(N—((S)-pyrrolidin-3-yl)carbamimidoyl)phenoxy)propanoic acid] | 1 | 0.25 | 8 | 0.5 | 0.25 | 4 | 4 | 4 | 1 | 2 |
| CC1(C)[C@H](NC(=O)/C(=N\O[C@@H](COc2ccc(C(=N)N[C@H]3CCCNC3)cc2)C(=O)O)c2nc(N)sc2Cl)C(=O)N1OS(=O)(=O)O [Example 11, (S)-2-((((Z)-1-(2-Amino-5-chlorothiazol-4-yl)-2-(((S)-2,2-dimethyl-4-oxo-1-(sulfooxy)azetidin-3-yl)amino)-2-oxoethylidene)amino)oxy)-3-(4-(N—((S)-piperidin-3-yl)carbamimidoyl)phenoxy)propanoic acid] | 32 | 0.5 | 16 | 2 | 0.5 | 64 | 64 | 32 | 4 | 32 |
| C[C@H]1[C@H](NC(=O)/C(=N\O[C@@H](COc2ccc(C(=N)N[C@H]3CCCNC3)cc2)C(=O)O)c2nc(N)sc2Cl)C(=O)N1S(=O)(=O)O [Example 9, (S)-2-((((Z)-1-(2-Amino-5-chlorothiazol-4-yl)-2-(((2S,3S)-2-methyl-4-oxo-1-sulfoazetidin-3-yl)amino)-2-oxoethylidene)amino)oxy)-3-(4-(N—((S)-piperidin-3-yl)carbamimidoyl)phenoxy)propanoic acid] | 32 | 0.5 | 32 | 1 | 1 | 32 | 64 | 16 | 16 | 64 |
| CC1(C)[C@H](NC(=O)/C(=N\O[C@@H](COc2ccc(C(=N)N[C@@H]3CCCNC3)cc2)C(=O)O)c2nsc(N)n2)C(=O)N1OS(=O)(=O)O [Example 4, (S)-2-((((Z)-1-(5-Amino-1,2,4-thiadiazol-3-yl)-2-(((S)-2,2-dimethyl-4-oxo-1-(sulfooxy)azetidin-3-yl)amino)-2-oxoethylidene)amino)oxy)-3-(4-(N—((R)-piperidin-3-yl)carbamimidoyl)phenoxy)propanoic acid] | 8 | 0.25 | 8 | 1 | 0.25 | 64 | 64 | 16 | 2 | 16 |
| CC1(C)[C@H](NC(=O)/C(=N\O[C@@H](COc2ccc(C(=N)N[C@H]3CCNC3)cc2)C(=O)O)c2nsc(N)n2)C(=O)N1OS(=O)(=O)O [Example 6, (S)-2-((((Z)-1-(5-Amino-1,2,4-thiadiazol-3-yl)-2-(((S)-2,2-dimethyl-4-oxo-1-(sulfooxy)azetidin-3-yl)amino)-2-oxoethylidene)amino)oxy)-3-(4-(N—((S)-pyrrolidin-3-yl)carbamimidoyl)phenoxy)propanoic acid] | 1 | 0.125 | 4 | 0.5 | 0.5 | 32 | 64 | 16 | 2 | 4 |
| CC1(C)[C@H](NC(=O)/C(=N\O[C@@H](COc2ccc(C(=N)N[C@@H]3CCNC3)cc2)C(=O)O)c2nc(N)sc2Cl)C(=O)N1OS(=O)(=O)O [Example 10, (S)-2-((((Z)-1-(2-Amino-5-chlorothiazol-4-yl)-2-(((S)-2,2-dimethyl-4-oxo-1-(sulfooxy)azetidin-3-yl)amino)-2-oxoethylidene)amino)oxy)-3-(4-(N—((R)-pyrrolidin-3-yl)carbamimidoyl)phenoxy)propanoic acid] | 1 | 0.25 | 8 | 2 | 1 | 4 | 1 | 8 | 2 | 2 |
| CC1(C)[C@H](NC(=O)/C(=N\O[C@@H](COc2ccc(C(=N)NC3CCNCC3)cc2)C(=O)O)c2nsc(N)n2)C(=O)N1OS(=O)(=O)O [Example 2, (S)-2-((((Z)-1-(5-Amino-1,2,4-thiadiazol-3-yl)-2-(((S)-2,2-dimethyl-4-oxo-1-(sulfooxy)azetidin-3-yl)amino)-2-oxoethylidene)amino)oxy)-3-(4-(N-(piperidin-4-yl)carbamimidoyl)phenoxy)propanoic acid] | 16 | 0.125 | 8 | 1 | 0.5 | 64 | 64 | 32 | 1 | 8 |

Further lines, results first:

| MIC [1] [µg/mL] | MIC (E. coli 8739) [µg/mL] | MIC [2] [µg/mL] | MIC (P. aeruginosa 9027) [µg/mL] | MIC (E. coli clinical isolate) [µg/mL] | MIC (E. cloacae 700323) [µg/mL] | MIC (K. pneumoniae 700603) [µg/mL] | MIC (A. baumannii 19606) [µg/mL] | MIC [3] [µg/mL] | MIC [4] [µg/mL] | SMILES |
| --- | --- | --- | --- | --- | --- | --- | --- | --- | --- | --- |
| 2 | 0.25 | 4 | 0.5 | 0.125 | 16 | 32 | 8 | 0.5 | 8 | CC1(C)[C@H](NC(=O)/C(=N\O[C@@H](COc2ccc(C(=N)NC3CNC3)cc2)C(=O)O)c2nsc(N)n2)C(=O)N1OS(=O)(=O)O [Example 7, (S)-2-((((Z)-1-(5-Amino-1,2,4-thiadiazol-3-yl)-2-(((S)-2,2-dimethyl-4-oxo-1-(sulfooxy)azetidin-3-yl)amino)-2-oxoethylidene)amino)oxy)-3-(4-(N-(azetidin-3-yl)carbamimidoyl)phenoxy)propanoic acid] |
| 64 | 16 | > 64 | 16 | > 64 | > 64 | 64 | 32 | > 64 | > 64 | C[C@H]1[C@H](NC(=O)/C(=N\OC(C)(C)C(=O)O)c2csc(N)n2)C(=O)N1S(=O)(=O)O [AZT, Aztreonam, reference compound] |
| 4 | 1 | 16 | 2 | 8 | 8 | 8 | 8 | 2 | 8 | CC1(C)[C@H](NC(=O)/C(=N\O[C@@H](COc2ccc(C(=N)NC3CCNCC3)cc2)C(=O)O)c2nc(N)sc2Cl)C(=O)N1OS(=O)(=O)O [Example 1, (S)-2-((((Z)-1-(2-Amino-5-chlorothiazol-4-yl)-2-(((S)-2,2-dimethyl-4-oxo-1-(sulfooxy)azetidin-3-yl)amino)-2-oxoethylidene)amino)oxy)-3-(4-(N-(piperidin-4-yl)carbamimidoyl)phenoxy)propanoic acid] |
| > 64 | > 64 | > 64 | > 64 | > 64 | > 64 | > 64 | > 64 | > 64 | > 64 | CC(C)(O/N=C(\C(=O)N[C@@H]1C(=O)N2C(C(=O)[O-])=C(C[n+]3ccccc3)CS[C@H]12)c1csc(N)n1)C(=O)O [CAZ, Ceftazidime, reference compound] |

Reference: patent publication US20230295149A1, “MONOBACTAM COMPOUNDS, THEIR PREPARATION AND USE AS ANTIBACTERIAL AGENTS” (NINGXIA ACADEMY OF AGRICULTURE AND FORESTRY SCIENCES, priority 2020, published 2023)
